The results in this text go back to ChEMBL document CHEMBL5465560, “Selectivity Literature for EUbOPEN Chemogenomic Library” (2024).

In assay [1] the target is Serine/threonine-protein kinase 25 (Homo sapiens) (UniProt O00506). The assay is described as follows: Selectivity interaction (KinomeScan (DiscoverX)) EUB0001619a STK25. The conditions noted are these: at 1 µM.
In assay [2] the target is Dual specificity protein kinase CLK2 (Homo sapiens, UniProt P49760). Conditions: at 10 µM.
Assay [3] deals with Mitogen-activated protein kinase 10 (Homo sapiens, UniProt P53779). The conditions noted are these: at 10 µM.
Mitogen-activated protein kinase 10, sequence (P53779 whole entry): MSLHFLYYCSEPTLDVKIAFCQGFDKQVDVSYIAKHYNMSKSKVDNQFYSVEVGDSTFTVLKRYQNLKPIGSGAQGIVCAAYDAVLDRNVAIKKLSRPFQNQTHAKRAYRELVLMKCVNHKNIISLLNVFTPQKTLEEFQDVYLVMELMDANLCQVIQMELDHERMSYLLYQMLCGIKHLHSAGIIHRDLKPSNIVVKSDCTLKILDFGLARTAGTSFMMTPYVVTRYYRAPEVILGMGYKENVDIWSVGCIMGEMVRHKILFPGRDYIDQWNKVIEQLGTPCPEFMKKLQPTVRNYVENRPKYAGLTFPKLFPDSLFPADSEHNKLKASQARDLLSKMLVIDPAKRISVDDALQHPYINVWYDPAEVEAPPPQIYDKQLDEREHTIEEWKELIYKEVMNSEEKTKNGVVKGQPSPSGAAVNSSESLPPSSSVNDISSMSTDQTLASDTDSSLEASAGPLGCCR
The target in assay [4] is Calcium/calmodulin-dependent protein kinase type II subunit delta (Homo sapiens) (UniProt Q13557). Description: Selectivity interaction (Kinase panel (Invitrogen)) EUB0000639a CAMK2D. The conditions noted are these: at 200 nM.
Calcium/calmodulin-dependent protein kinase type II subunit delta (Homo sapiens), sequence (Q13557 whole entry): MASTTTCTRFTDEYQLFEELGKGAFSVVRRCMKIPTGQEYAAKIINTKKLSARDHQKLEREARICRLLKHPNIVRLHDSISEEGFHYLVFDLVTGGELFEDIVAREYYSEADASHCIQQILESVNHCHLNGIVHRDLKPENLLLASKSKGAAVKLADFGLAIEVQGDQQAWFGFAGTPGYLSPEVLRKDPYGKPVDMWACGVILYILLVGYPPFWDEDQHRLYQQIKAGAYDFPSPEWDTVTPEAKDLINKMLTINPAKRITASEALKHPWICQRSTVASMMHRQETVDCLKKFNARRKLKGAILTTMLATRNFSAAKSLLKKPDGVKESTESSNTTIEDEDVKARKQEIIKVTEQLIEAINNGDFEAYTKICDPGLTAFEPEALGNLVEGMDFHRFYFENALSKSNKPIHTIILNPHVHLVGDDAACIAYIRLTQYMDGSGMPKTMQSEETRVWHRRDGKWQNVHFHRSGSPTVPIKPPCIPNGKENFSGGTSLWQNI
For assay [5], the target named is 5'-AMP-activated protein kinase catalytic subunit alpha-1 (Homo sapiens, UniProt Q13131). Description: Selectivity interaction (ActivX KiNativ screen (kinase selectivity in THP-1 cell lysates)) EUB0000639a PRKAA1. In kind it is subcellular. Conditions: lysate, at 1 µM.
5'-AMP-activated protein kinase catalytic subunit alpha-1, sequence (Q13131 whole entry, looked up): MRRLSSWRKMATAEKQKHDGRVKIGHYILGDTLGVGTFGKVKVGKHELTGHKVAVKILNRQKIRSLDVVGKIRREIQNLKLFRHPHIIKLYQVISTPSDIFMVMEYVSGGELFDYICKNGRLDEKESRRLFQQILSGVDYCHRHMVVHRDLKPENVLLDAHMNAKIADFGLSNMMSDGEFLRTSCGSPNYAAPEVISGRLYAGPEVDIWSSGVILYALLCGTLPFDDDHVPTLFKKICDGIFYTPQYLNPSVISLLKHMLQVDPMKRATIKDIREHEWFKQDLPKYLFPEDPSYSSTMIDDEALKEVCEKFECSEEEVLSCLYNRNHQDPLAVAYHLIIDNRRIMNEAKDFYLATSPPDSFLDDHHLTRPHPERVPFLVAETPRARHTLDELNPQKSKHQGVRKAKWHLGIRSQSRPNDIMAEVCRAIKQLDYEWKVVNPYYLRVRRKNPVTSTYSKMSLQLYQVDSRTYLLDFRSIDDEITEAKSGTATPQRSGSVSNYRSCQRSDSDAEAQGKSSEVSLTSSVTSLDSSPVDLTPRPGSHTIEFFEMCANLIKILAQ
Assay [6] concerns the target Calcium/calmodulin-dependent protein kinase type II subunit alpha (Homo sapiens, UniProt Q9UQM7). Description: Selectivity interaction (Kinase panel (literature)) EUB0001199aCl CAMK2A. The conditions noted are these: at 1 µM.
Assay [7] deals with T1, Aurora kinase A (Homo sapiens) (UniProt O14965).
T1 sequence (whole entry): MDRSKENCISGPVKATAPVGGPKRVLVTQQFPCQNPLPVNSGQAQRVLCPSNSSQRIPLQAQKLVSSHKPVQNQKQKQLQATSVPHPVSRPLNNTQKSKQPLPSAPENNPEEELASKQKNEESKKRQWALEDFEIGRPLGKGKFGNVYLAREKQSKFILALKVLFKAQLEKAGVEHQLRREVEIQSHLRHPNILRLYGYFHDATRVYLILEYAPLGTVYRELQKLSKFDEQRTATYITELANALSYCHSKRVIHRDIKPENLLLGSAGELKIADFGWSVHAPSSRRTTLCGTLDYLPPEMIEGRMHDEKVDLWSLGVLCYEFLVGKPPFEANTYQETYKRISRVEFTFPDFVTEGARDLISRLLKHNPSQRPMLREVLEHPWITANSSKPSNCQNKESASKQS
The assay is described as follows: Selectivity interaction (Ambit KINOMEscan and KiNATiv profiling in Jurkat cells) EUB0000090b STK6. The assay is classed as cell-based. The conditions noted are these: at 1 µM.

Assay [8] deals with RAC-alpha serine/threonine-protein kinase (Homo sapiens, UniProt P31749).
Another assay addresses Focal adhesion kinase 1 (Homo sapiens, UniProt Q05397). Description: Selectivity interaction (KinomeScan (DiscoverX)) EUB0000655a PTK2. The conditions noted are these: at 10 µM.
Assay [9] has as its target Mitogen-activated protein kinase kinase kinase 4 (Homo sapiens) (UniProt Q9Y6R4). The assay is described as follows: Selectivity interaction (KinomeScan (DiscoverX)) EUB0000655a MAP3K4. Conditions: at 10 µM.
Assay [10] has as its target Ribosomal protein S6 kinase alpha-2 (Homo sapiens) (UniProt Q15349). The assay is described as follows: Selectivity interaction (KinomeScan (DiscoverX)) EUB0000655a RPS6KA2. Conditions: at 10 µM.
In assay [11] the target is Serine/threonine-protein kinase Nek4 (Homo sapiens) (UniProt P51957). Description: Selectivity interaction (KinomeScan (DiscoverX)) EUB0000092b NEK4. The conditions noted are these: at 10 µM.
The target of assay [12] is T2, Serine/threonine-protein kinase Nek2 (Homo sapiens) (UniProt P51955).
T2 sequence (whole entry): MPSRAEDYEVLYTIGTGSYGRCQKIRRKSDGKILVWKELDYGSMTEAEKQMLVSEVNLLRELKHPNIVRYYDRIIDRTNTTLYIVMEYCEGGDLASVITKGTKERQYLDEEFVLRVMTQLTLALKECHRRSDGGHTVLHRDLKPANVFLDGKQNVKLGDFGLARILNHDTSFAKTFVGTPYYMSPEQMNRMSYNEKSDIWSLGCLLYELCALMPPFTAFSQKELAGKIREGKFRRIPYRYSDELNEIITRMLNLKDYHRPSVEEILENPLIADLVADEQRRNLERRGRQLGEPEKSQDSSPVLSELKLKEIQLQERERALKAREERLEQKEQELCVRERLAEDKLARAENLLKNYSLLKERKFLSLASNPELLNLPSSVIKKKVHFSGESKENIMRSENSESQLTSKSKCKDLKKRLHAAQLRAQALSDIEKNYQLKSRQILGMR
Description: Selectivity interaction (Kinase panel (DSF assay)) EUB0001558a NEK2.

Assay [13] addresses Fibroblast growth factor receptor 3 (Homo sapiens, UniProt P22607). Description: Selectivity interaction (Millipore kinase profiler) EUB0000124b FGFR3. Conditions: at 10 µM.
The target of assay [14] is T3, Tyrosine-protein kinase receptor TYRO3 (Homo sapiens) (UniProt Q06418).
T3 sequence (whole entry): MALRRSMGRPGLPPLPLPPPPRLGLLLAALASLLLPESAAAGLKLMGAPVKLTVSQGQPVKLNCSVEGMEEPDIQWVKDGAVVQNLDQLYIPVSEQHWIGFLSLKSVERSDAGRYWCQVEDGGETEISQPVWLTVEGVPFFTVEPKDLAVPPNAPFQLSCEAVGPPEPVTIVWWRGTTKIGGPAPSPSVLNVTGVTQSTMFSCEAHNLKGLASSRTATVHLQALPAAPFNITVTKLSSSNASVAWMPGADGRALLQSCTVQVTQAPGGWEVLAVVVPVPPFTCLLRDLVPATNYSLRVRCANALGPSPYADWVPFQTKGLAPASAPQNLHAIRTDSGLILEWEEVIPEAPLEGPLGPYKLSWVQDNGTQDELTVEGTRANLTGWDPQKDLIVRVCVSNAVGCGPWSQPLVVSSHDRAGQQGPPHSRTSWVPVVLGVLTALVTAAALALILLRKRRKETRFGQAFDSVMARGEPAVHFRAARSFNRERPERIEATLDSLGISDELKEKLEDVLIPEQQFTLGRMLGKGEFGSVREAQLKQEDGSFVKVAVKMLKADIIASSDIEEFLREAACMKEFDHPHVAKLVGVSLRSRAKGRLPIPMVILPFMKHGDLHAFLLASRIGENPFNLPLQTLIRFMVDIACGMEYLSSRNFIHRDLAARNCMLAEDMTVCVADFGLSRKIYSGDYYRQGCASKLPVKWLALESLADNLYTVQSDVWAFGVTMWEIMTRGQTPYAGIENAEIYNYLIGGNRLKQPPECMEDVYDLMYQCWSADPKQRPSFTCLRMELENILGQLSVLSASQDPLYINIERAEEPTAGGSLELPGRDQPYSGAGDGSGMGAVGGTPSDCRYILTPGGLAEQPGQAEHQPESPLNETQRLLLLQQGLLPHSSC
Description: Selectivity interaction (Millipore kinase profiler) EUB0000124b TYRO3. The conditions noted are these: at 10 µM.

Focal adhesion kinase 1, sequence (Q05397 2-1052 limits assumed): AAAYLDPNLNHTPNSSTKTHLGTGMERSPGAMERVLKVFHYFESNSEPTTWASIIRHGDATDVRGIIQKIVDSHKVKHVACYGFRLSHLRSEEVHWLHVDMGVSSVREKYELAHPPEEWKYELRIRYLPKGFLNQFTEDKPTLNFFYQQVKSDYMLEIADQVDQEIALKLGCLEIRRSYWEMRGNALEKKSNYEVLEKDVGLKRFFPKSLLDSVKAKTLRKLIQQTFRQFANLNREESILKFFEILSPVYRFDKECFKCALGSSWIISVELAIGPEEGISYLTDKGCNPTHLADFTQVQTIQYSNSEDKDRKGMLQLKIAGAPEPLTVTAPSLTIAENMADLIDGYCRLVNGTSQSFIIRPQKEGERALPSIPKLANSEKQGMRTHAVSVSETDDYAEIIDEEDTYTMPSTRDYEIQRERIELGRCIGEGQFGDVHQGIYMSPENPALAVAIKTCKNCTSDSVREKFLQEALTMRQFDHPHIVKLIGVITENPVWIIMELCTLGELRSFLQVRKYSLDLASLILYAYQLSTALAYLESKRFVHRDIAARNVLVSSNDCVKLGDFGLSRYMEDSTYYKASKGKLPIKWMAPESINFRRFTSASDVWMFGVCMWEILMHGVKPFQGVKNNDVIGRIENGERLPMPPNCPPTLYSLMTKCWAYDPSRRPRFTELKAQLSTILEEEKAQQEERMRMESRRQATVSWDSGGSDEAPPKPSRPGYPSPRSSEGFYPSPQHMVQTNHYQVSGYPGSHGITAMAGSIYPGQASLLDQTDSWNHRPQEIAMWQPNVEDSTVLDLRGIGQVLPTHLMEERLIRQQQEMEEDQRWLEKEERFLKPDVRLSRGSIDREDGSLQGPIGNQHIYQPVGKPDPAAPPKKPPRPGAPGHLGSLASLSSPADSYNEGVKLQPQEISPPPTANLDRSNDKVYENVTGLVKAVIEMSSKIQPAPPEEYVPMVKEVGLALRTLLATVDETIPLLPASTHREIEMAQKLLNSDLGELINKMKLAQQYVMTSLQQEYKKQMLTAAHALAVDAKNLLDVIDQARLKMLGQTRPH
Serine/threonine-protein kinase 25 (Homo sapiens), sequence (O00506 whole entry, looked up): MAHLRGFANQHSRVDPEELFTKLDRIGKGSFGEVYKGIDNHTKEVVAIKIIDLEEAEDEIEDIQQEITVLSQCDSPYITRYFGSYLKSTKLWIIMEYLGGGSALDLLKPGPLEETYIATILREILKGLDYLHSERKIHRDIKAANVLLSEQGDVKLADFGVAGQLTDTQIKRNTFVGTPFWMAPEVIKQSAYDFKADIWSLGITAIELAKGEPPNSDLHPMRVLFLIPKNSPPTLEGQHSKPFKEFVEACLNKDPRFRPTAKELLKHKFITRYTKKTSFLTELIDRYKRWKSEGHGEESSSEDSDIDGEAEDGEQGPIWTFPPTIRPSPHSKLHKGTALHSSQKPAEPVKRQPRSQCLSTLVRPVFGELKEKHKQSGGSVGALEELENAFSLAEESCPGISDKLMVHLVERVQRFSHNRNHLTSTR
Dual specificity protein kinase CLK2, sequence (P49760 whole entry, looked up): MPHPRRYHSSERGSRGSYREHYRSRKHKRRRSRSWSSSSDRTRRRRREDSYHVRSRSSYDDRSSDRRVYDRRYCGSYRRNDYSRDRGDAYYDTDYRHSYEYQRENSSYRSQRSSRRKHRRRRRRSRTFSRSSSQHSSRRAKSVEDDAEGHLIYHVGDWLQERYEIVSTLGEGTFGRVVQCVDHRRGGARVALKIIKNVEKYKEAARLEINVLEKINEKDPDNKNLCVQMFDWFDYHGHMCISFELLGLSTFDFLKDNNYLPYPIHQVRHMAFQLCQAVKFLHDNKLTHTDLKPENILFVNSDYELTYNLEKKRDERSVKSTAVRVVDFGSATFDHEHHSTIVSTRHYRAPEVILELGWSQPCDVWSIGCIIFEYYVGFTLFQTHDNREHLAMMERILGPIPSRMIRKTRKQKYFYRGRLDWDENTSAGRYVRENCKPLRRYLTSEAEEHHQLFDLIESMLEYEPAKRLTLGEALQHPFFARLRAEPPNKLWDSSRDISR
Calcium/calmodulin-dependent protein kinase type II subunit alpha, sequence (Q9UQM7 whole entry): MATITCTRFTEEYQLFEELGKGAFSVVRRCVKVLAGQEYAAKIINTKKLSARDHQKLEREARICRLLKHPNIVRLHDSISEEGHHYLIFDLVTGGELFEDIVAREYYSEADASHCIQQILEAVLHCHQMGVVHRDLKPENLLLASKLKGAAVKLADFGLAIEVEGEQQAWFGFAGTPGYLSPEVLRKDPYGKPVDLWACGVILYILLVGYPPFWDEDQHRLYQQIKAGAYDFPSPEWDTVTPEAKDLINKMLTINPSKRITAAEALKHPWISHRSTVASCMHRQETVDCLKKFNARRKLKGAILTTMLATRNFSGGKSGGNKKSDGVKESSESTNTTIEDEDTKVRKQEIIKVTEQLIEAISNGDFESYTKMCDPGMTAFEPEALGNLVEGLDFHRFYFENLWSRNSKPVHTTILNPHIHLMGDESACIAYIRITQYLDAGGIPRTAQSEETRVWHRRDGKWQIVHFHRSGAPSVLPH
Ribosomal protein S6 kinase alpha-2 (Homo sapiens), sequence (Q15349 whole entry): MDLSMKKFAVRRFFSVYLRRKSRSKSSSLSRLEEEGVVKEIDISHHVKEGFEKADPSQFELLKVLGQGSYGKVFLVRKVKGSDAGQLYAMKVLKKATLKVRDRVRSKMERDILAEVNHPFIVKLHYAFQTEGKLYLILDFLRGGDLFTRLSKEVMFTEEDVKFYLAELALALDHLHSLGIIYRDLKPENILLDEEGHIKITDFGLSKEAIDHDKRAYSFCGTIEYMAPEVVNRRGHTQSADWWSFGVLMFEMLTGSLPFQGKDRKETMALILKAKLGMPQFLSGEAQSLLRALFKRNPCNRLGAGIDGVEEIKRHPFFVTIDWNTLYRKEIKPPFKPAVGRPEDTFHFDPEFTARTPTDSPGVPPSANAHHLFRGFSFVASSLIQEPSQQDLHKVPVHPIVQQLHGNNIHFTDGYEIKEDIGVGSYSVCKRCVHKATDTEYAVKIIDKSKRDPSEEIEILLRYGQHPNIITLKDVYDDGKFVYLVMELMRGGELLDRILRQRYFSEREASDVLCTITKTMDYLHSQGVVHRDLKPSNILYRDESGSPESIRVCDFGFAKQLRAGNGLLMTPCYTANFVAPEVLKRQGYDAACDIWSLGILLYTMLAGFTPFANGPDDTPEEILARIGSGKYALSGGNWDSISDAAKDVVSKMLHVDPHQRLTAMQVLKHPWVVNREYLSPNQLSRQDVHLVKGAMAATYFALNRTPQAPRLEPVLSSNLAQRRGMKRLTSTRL

For `N#Cc1cccc(-c2c[nH]c3ncnc(N4CCOCC4)c23)c1`, the % of control in assay [1] worked out at 28%.
Take `CCN(CC)CCCCNc1ncc2cc(-c3cc(OC)cc(OC)c3)c(NC(=O)NC(C)(C)C)nc2n1`: the % of control in assay [2] and in assay [3] was 100% throughout.
For the molecule `CC[C@@H]1[C@H](F)C(=O)N[C@@H]1COc1nccc2cc(C(N)=O)c(OC)cc12` [ZIMLOVISERTIB], the % of inhibition was 24.9% in [4] and -4.6% in assay [5].
In the case of `CN1Cc2nccc(-c3cn(C)nc3-c3ccc(F)cc3)c2C1=O`, the % of inhibition in assay [6] came out at 10%.
In [7], `CN(C)C/C=C/C(=O)Nc1ccc(C(=O)N2CCCC(Nc3ncc(Cl)c(-c4c[nH]c5ccccc45)n3)C2)cc1` (stereo not given) showed a % of control of 96%.
In assay [8], `CCc1cccc(CC)c1NC(=O)c1nn(C)c2c1CCc1cnc(Nc3ccc(C(=O)NC4CCN(C)CC4)cc3OC(F)(F)F)nc1-2` gave an IC50 of more than 10 µM.
Take `CN(C)CCOc1ccc(-c2nc(-c3ccncc3)c(-c3ccc4c(c3)CC/C4=N\O)[nH]2)cc1`: the % of control at Focal adhesion kinase 1 is 100%; in [9] it was 83%; in assay [10] it was 100%.
For the molecule `CCC(=O)N1CCN(c2ccc(-n3c(=O)ccc4cnc5ccc(-c6cnc7ccccc7c6)cc5c43)cc2C(F)(F)F)CC1`, the % of control in assay [11] was 86%.
In turn, `CC(C)(O)[C@H](F)CN1Cc2cc(NC(=O)c3cnn4cccnc34)c(N3CCOCC3)cc2C1=O` displayed a dTM in assay [12] of 0.4 K.
In the case of `CC(=O)Nc1cccc(-n2c(=O)n(C3CC3)c(=O)c3c(Nc4ccc(I)cc4F)n(C)c(=O)c(C)c32)c1`, the % of control in [13] worked out at 98%; in assay [14], 112%.
